Test results reported in the kinase profiling compilation of Christmann-Franck et al. (2016).
Values joined by “and” are separate entries in the source; they are usually repeats but may differ in a detail not shown here. Equal values may be shown once. Blank lines part the entries; values can stand above or below the compound they belong to.

What was measured:
Test in all cases: radiometric filter-binding kinase assay, Kinase HotSpot
Conditions in all cases: compound 0.5 µM; ATP 10 µM
CLK1 (human) = CLK1 (human) (UniProt P49759)
MAP3K9 (human) = MAP3K9 (human) (UniProt P80192)
NLK (human) = NLK (human) (UniProt Q9UBE8)
ACVR1 (human) = ACVR1 (human) (UniProt Q04771)
PDGFRB (human) = PDGFRB (human) (UniProt P09619)
Chain of PDGFRB (human) (P09619 whole entry, looked up): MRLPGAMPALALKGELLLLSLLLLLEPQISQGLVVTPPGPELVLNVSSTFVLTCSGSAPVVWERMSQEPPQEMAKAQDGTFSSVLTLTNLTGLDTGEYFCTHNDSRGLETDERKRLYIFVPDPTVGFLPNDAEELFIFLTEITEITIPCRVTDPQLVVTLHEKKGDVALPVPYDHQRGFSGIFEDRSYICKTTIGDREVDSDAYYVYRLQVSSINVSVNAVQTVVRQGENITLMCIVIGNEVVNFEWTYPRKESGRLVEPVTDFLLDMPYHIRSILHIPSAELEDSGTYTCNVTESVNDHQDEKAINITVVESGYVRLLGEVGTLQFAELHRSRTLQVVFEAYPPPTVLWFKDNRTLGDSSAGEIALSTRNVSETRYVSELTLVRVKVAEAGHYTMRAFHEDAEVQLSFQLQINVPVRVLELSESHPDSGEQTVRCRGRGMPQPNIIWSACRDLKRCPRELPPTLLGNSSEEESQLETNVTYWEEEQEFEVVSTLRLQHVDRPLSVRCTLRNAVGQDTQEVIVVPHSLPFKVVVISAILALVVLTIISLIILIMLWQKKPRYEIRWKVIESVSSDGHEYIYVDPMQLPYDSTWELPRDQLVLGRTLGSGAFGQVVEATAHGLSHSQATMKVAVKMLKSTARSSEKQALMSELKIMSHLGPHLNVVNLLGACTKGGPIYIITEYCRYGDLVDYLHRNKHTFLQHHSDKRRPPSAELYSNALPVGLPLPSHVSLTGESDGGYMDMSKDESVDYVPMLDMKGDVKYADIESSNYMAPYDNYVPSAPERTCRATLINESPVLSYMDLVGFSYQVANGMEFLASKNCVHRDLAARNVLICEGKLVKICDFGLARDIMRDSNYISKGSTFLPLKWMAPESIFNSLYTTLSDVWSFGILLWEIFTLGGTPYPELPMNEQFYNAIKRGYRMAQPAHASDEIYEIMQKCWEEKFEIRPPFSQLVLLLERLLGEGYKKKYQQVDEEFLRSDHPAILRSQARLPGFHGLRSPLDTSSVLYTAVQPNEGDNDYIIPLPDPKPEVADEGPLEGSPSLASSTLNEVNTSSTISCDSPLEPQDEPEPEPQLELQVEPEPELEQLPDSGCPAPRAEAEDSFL

MYLK (human) = MYLK (human) (UniProt Q15746)
PTK2 (human) = PTK2 (human) (UniProt Q05397)
PRKCB2 (human) = PRKCB2 (human) (UniProt P05771)
EPHA3 (human) = EPHA3 (human) (UniProt P29320)
CDK6 CCND1 (human) = CDK6 CCND1 (human) (UniProt Q00534+P24385)
TNK2 (human) = TNK2 (human) (UniProt Q07912)
CLK2 (human) = CLK2 (human) (UniProt P49760)
MELK (human) = MELK (human) (UniProt Q14680)
MAPK10 (human) = MAPK10 (human) (UniProt P53779)
Chain of MAPK10 (human) (P53779 whole entry, looked up): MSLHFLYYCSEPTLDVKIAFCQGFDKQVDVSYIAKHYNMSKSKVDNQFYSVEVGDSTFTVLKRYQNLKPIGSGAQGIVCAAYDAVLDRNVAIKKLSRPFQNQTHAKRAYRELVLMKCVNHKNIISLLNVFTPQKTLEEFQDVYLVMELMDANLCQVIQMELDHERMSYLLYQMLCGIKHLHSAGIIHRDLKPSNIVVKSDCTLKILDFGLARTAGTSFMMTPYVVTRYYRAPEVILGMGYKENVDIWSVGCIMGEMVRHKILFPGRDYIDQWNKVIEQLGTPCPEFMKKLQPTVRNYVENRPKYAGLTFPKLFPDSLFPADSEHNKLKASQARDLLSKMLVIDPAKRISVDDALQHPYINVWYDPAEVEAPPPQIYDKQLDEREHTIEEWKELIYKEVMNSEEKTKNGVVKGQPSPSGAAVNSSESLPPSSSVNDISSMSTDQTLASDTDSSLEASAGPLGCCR

MATK (human) = MATK (human) (UniProt P42679)
CHUK (human) = CHUK (human) (UniProt O15111)
FGR (human) = FGR (human) (UniProt P09769)
CSNK1G2 (human) = CSNK1G2 (human) (UniProt P78368)
PRKCA (human) = PRKCA (human) (UniProt P17252)
CDK4 CCND1 (human) = CDK4 CCND1 (human) (UniProt P24385+P11802)
Chain of CDK4 CCND1 (human) (P11802 whole entry, looked up): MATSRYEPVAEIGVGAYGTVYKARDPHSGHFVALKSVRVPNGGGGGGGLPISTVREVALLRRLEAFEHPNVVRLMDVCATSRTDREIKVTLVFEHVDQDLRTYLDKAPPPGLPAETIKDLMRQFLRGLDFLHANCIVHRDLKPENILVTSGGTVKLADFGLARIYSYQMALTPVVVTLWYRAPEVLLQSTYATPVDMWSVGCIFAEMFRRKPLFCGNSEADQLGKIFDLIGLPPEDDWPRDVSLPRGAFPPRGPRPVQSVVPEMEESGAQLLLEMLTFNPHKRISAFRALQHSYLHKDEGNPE
Chain of CDK4 CCND1 (human) (P24385 whole entry, looked up): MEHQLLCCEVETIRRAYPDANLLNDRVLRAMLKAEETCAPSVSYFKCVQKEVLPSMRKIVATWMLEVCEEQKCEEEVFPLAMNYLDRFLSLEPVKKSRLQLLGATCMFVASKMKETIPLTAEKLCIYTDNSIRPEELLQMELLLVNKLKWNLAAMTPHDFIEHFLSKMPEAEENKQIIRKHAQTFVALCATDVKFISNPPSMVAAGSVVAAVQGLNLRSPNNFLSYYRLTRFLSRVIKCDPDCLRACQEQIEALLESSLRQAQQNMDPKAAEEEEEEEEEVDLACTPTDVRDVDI

RPS6KA1 KD1 KD2 (human) = RPS6KA1 KD1 KD2 (human) (UniProt Q15418)
MAPK9 (human) = MAPK9 (human) (UniProt P45984)
LTK (human) = LTK (human) (UniProt P29376)
ULK2 (human) = ULK2 (human) (UniProt Q8IYT8)
TEC (human) = TEC (human) (UniProt P42680)
FYN (human) = FYN (human) (UniProt P06241)
HCK (human) = HCK (human) (UniProt P08631)
RPS6KA6 KD1 KD2 (human) = RPS6KA6 KD1 KD2 (human) (UniProt Q9UK32)
MAP4K4 (human) = MAP4K4 (human) (UniProt O95819)
CAMK2D (human) = CAMK2D (human) (UniProt Q13557)
Chain of CAMK2D (human) (Q13557 whole entry, looked up): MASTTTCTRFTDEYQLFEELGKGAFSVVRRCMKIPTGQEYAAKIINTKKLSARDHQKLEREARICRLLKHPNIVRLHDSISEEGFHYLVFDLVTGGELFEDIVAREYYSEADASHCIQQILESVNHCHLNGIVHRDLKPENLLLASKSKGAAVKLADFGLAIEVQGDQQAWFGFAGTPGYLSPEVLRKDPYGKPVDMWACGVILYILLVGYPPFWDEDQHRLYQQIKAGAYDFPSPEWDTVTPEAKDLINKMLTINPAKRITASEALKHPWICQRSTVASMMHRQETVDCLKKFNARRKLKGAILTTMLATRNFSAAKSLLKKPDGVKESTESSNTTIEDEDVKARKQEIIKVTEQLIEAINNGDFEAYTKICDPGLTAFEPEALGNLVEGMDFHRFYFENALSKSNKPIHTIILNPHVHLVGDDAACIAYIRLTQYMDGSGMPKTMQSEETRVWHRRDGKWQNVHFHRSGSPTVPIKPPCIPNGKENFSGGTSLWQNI

PRKG1 (human) = PRKG1 (human) (UniProt Q13976)
HIPK4 (human) = HIPK4 (human) (UniProt Q8NE63)
RPS6KB1 (human) = RPS6KB1 (human) (UniProt P23443)
FES (human) = FES (human) (UniProt P07332)
Chain of FES (human) (P07332 whole entry, looked up): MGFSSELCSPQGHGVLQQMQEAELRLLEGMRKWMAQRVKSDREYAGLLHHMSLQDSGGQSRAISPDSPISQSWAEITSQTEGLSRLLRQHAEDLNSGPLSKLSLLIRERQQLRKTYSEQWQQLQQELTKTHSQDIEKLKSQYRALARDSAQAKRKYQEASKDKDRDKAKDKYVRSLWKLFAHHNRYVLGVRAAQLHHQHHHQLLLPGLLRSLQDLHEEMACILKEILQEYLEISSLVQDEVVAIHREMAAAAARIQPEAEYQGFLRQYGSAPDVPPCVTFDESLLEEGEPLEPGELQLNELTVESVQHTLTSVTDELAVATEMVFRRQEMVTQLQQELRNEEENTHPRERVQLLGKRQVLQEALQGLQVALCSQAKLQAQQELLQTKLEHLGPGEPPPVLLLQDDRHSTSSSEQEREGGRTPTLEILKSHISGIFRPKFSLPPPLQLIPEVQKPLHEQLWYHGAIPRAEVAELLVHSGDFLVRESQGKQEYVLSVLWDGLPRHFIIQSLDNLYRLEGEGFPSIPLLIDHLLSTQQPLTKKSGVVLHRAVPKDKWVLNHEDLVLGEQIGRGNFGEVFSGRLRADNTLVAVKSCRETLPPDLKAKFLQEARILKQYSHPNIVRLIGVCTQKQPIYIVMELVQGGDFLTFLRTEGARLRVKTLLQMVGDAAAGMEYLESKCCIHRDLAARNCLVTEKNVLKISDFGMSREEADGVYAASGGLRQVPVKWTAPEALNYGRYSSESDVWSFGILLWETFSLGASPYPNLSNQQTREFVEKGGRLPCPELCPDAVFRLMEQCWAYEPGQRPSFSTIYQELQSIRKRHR

PKN1 (human) = PKN1 (human) (UniProt Q16512)
BLK (human) = BLK (human) (UniProt P51451)
Chain of BLK (human) (P51451 whole entry, looked up): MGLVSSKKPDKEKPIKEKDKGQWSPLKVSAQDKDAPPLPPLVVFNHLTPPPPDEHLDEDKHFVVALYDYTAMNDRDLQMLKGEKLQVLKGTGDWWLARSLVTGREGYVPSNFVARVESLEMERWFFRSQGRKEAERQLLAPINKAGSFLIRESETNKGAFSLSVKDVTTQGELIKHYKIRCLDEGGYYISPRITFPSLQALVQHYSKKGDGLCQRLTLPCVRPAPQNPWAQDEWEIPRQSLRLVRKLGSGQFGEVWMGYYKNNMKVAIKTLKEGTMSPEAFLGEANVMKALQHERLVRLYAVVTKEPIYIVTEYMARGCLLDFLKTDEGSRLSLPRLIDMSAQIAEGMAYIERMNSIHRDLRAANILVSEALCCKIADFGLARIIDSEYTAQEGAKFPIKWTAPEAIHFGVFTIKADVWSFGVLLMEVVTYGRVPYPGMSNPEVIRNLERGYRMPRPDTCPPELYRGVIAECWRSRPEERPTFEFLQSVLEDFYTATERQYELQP

WNK2 (human) = WNK2 (human) (UniProt Q9Y3S1)
NEK6 (human) = NEK6 (human) (UniProt Q9HC98)
MERTK (human) = MERTK (human) (UniProt Q12866)
LCK (human) = LCK (human) (UniProt P06239)
Chain of LCK (human) (P06239 whole entry, looked up): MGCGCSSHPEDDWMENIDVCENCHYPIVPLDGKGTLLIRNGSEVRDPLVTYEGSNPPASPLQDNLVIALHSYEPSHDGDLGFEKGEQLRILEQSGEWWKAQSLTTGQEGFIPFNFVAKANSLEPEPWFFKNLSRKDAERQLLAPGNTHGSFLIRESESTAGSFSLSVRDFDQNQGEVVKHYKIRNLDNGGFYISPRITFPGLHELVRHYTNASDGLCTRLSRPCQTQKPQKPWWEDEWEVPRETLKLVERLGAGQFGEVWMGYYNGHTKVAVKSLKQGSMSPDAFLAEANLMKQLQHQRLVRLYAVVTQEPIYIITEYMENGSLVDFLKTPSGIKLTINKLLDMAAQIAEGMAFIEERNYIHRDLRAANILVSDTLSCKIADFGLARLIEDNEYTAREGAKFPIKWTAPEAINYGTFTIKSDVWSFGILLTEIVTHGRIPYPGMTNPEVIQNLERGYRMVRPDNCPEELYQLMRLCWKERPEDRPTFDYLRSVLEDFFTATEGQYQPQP

CHEK1 (human) = CHEK1 (human) (UniProt O14757)
Chain of CHEK1 (human) (O14757 whole entry, looked up): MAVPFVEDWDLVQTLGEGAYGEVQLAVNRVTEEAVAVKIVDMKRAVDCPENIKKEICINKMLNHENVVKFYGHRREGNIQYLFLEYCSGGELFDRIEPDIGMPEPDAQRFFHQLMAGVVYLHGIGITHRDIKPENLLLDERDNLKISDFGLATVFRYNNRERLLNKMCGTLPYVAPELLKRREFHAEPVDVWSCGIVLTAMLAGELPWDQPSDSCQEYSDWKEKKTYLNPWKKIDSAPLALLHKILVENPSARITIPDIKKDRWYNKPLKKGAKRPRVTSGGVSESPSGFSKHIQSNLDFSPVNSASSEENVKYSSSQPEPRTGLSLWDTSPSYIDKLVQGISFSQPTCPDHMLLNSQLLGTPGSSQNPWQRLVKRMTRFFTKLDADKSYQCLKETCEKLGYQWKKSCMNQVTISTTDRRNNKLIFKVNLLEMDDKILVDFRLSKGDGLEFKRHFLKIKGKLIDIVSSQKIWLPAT

CDK3 CCNE1 (human) = CDK3 CCNE1 (human) (UniProt Q00526+P24864)

residual activity (CLK1 (human)): 83.3%
residual activity (MAP3K9 (human)): 51.5%
residual activity (NLK (human)): 106%
residual activity (ACVR1 (human)): 102%
residual activity (PDGFRB (human)): 51.6%
residual activity (MYLK (human)): 74.2%
residual activity (PTK2 (human)): 95.9%
residual activity (PRKCB2 (human)): 101%
residual activity (EPHA3 (human)): 88.2%
residual activity (CDK6 CCND1 (human)): 53.2%
residual activity (TNK2 (human)): 74.7%
residual activity (CLK2 (human)): 96.8%
residual activity (MELK (human)): 93.9%
residual activity (MAPK10 (human)): 83%
residual activity (MATK (human)): 93%
residual activity (CHUK (human)): 98.3%
residual activity (FGR (human)): 14.8%
residual activity (CSNK1G2 (human)): 89.7%
residual activity (PRKCA (human)): 105%
residual activity (CDK4 CCND1 (human)): 73.3%
residual activity (RPS6KA1 KD1 KD2 (human)): 69%
residual activity (MAPK9 (human)): 90.5%
residual activity (LTK (human)): 83.3%
residual activity (ULK2 (human)): 92.2%
residual activity (TEC (human)): 131%
residual activity (FYN (human)): 20.9%
residual activity (HCK (human)): 43.1%
residual activity (RPS6KA6 KD1 KD2 (human)): 70%
residual activity (MAP4K4 (human)): 30.2%
residual activity (CAMK2D (human)): 53.8%
residual activity (PRKG1 (human)): 82.7% and 86.1%
residual activity (HIPK4 (human)): 95.5%
residual activity (RPS6KB1 (human)): 95.4%
residual activity (FES (human)): 115%
residual activity (PKN1 (human)): 96.1%
residual activity (BLK (human)): 25.6%
residual activity (WNK2 (human)): 98.6%
residual activity (NEK6 (human)): 100%
residual activity (MERTK (human)): 77%
residual activity (LCK (human)): 53.5%
residual activity (CHEK1 (human)): 100%
residual activity (CDK3 CCNE1 (human)): 36.3%
SMILES: CC(=O)O/N=C1\C(=C2\C(=O)Nc3cc(Br)ccc32)Nc2ccccc21

residual activity (CLK1 (human)): 90.9%
residual activity (MAP3K9 (human)): 19.1%
residual activity (NLK (human)): 94.6%
residual activity (ACVR1 (human)): 112%
residual activity (PDGFRB (human)): 72.6%
residual activity (MYLK (human)): 65%
residual activity (PTK2 (human)): 65.8%
residual activity (PRKCB2 (human)): 101%
residual activity (EPHA3 (human)): 92%
residual activity (CDK6 CCND1 (human)): 52.8%
residual activity (TNK2 (human)): 40.6%
residual activity (CLK2 (human)): 92.5%
residual activity (MELK (human)): 33.3%
residual activity (MAPK10 (human)): 96.4%
residual activity (MATK (human)): 98%
residual activity (CHUK (human)): 97.6%
residual activity (FGR (human)): 35.7%
residual activity (CSNK1G2 (human)): 89.4%
residual activity (PRKCA (human)): 97.7%
residual activity (CDK4 CCND1 (human)): 70.9%
residual activity (RPS6KA1 KD1 KD2 (human)): 39.6%
residual activity (MAPK9 (human)): 65.6%
residual activity (LTK (human)): 62.3%
residual activity (ULK2 (human)): 103%
residual activity (TEC (human)): 105%
residual activity (FYN (human)): 43.3%
residual activity (HCK (human)): 60.2%
residual activity (RPS6KA6 KD1 KD2 (human)): 52.2%
residual activity (MAP4K4 (human)): 42%
residual activity (CAMK2D (human)): 60.4%
residual activity (PRKG1 (human)): 86% and 90.1%
residual activity (HIPK4 (human)): 102%
residual activity (RPS6KB1 (human)): 75.9%
residual activity (FES (human)): 92.4%
residual activity (PKN1 (human)): 87.5%
residual activity (BLK (human)): 75.1%
residual activity (WNK2 (human)): 99.8%
residual activity (NEK6 (human)): 92.2%
residual activity (MERTK (human)): 82.2%
residual activity (LCK (human)): 77.1%
residual activity (CHEK1 (human)): 65.3%
residual activity (CDK3 CCNE1 (human)): 52.3%
SMILES: O=C1Nc2ccccc2/C1=C1\Nc2ccccc2\C1=N/O

SMILES: Cc1nc2cc3nc(-c4cccs4)cnc3cc2n1C
residual activity (CLK1 (human)): 111%
residual activity (MAP3K9 (human)): 90.3%
residual activity (NLK (human)): 105%
residual activity (ACVR1 (human)): 99.3%
residual activity (PDGFRB (human)): 63.3%
residual activity (MYLK (human)): 97%
residual activity (PTK2 (human)): 117%
residual activity (PRKCB2 (human)): 121%
residual activity (EPHA3 (human)): 102%
residual activity (CDK6 CCND1 (human)): 99.3%
residual activity (TNK2 (human)): 100%
residual activity (CLK2 (human)): 95.3%
residual activity (MELK (human)): 95.6%
residual activity (MAPK10 (human)): 96.3%
residual activity (MATK (human)): 100%
residual activity (CHUK (human)): 96.2%
residual activity (FGR (human)): 89.3%
residual activity (CSNK1G2 (human)): 103%
residual activity (PRKCA (human)): 74.7%
residual activity (CDK4 CCND1 (human)): 108%
residual activity (RPS6KA1 KD1 KD2 (human)): 99.4%
residual activity (MAPK9 (human)): 74.7%
residual activity (LTK (human)): 95.2%
residual activity (ULK2 (human)): 105%
residual activity (TEC (human)): 158%
residual activity (FYN (human)): 107%
residual activity (HCK (human)): 98%
residual activity (RPS6KA6 KD1 KD2 (human)): 88.5%
residual activity (MAP4K4 (human)): 84.5%
residual activity (CAMK2D (human)): 100%
residual activity (PRKG1 (human)): 98.5% and 99.7%
residual activity (HIPK4 (human)): 103%
residual activity (RPS6KB1 (human)): 95%
residual activity (FES (human)): 106%
residual activity (PKN1 (human)): 96.5%
residual activity (BLK (human)): 99.8%
residual activity (WNK2 (human)): 123%
residual activity (NEK6 (human)): 99.2%
residual activity (MERTK (human)): 90.4%
residual activity (LCK (human)): 86.3%
residual activity (CHEK1 (human)): 99.8%
residual activity (CDK3 CCNE1 (human)): 93.6%

SMILES: O=C1NC(=O)/C(=C\c2ccc3nccnc3c2)S1
residual activity (CLK1 (human)): 80.1%
residual activity (MAP3K9 (human)): 102%
residual activity (NLK (human)): 92.4%
residual activity (ACVR1 (human)): 102%
residual activity (PDGFRB (human)): 99.5%
residual activity (MYLK (human)): 97.1%
residual activity (PTK2 (human)): 96.5%
residual activity (PRKCB2 (human)): 103%
residual activity (EPHA3 (human)): 97.1%
residual activity (CDK6 CCND1 (human)): 97.5%
residual activity (TNK2 (human)): 91.4%
residual activity (CLK2 (human)): 74%
residual activity (MELK (human)): 90.7%
residual activity (MAPK10 (human)): 96%
residual activity (MATK (human)): 90.5%
residual activity (CHUK (human)): 86.7%
residual activity (FGR (human)): 96.8%
residual activity (CSNK1G2 (human)): 83.4%
residual activity (PRKCA (human)): 102%
residual activity (CDK4 CCND1 (human)): 94.4%
residual activity (RPS6KA1 KD1 KD2 (human)): 80.7%
residual activity (MAPK9 (human)): 96%
residual activity (LTK (human)): 94.7%
residual activity (ULK2 (human)): 104%
residual activity (TEC (human)): 117%
residual activity (FYN (human)): 95.3%
residual activity (HCK (human)): 92.2%
residual activity (RPS6KA6 KD1 KD2 (human)): 87.6%
residual activity (MAP4K4 (human)): 80.9%
residual activity (CAMK2D (human)): 93.7%
residual activity (PRKG1 (human)): 113% and 98.3%
residual activity (HIPK4 (human)): 95%
residual activity (RPS6KB1 (human)): 91.2%
residual activity (FES (human)): 96.4%
residual activity (PKN1 (human)): 101%
residual activity (BLK (human)): 99.4%
residual activity (WNK2 (human)): 115%
residual activity (NEK6 (human)): 109%
residual activity (MERTK (human)): 92.1%
residual activity (LCK (human)): 98.6%
residual activity (CHEK1 (human)): 99.4%
residual activity (CDK3 CCNE1 (human)): 91.7%
